Literature values in patent US4788322A, “Process for preparing ACHPA” (Merck & Co., Inc., priority 1987, dated 1988).
Square brackets hold non-standard residues; d marks the D form. Peptide text beside a SMILES is read from it. * marks the point of attachment. Sta = CC(C)C[C@H](N)[C@@H](O)CC(=O)O; Isovaleryl = CC(C)CC(=O)*

Test system: hog renin
Conditions: after injection of hog renin into nephrectomized rats; Gross et al., Science 1972

CC(C)CC(=O)N[C@H](C(=O)N[C@H](C(=O)N[C@@H](CC(C)C)[C@@H](O)CC(=O)N[C@@H](C)C(=O)N[C@@H](CC(C)C)[C@@H](O)CC(=O)O)C(C)C)C(C)C [pepstatin] (Isovaleryl-VV[Sta]A[Sta]-OH)
blood pressure in vivo: reduces blood pressure
